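Briefly, cells in 96-well plates were exposed to five compound concentrations for 48 h, and endpoints were estimated by linear interpolation. GI50 marks 50% less growth.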 Calls of active or inactive are those of the source. No stated cut-off is given here; in the data, active = GI50 up to about 1.1 µM and inactive = higher.
Assays:
Assay in all cases: DTP human tumour cell line panel, 48 h
[1] = system: ACHN
[2] = system: SK-MEL-2
[3] = system: DMS-273
[4] = system: SK-MEL-5
[5] = system: DMS-114
[6] = system: LOX IMVI
[7] = system: UO-31
[8] = system: COLO 205
[9] = system: SNB-78
[10] = system: A549
[11] = system: OVCAR-5
[12] = system: 786-0
[13] = system: HT-29
[14] = system: HOP-62
[15] = system: NCI-H460
[16] = system: SNB-75
[17] = system: HCT-116
[18] = system: SF-268
[19] = system: RXF 393
[20] = system: SW-620
[21] = system: SN12C
[22] = system: KM12
[23] = system: OVCAR-8
[24] = system: RXF 631
[25] = system: XF498
[26] = system: OVCAR-4
[27] = system: A498
[28] = system: M14
[29] = system: Malme-3M
[30] = system: HCT-15
[31] = system: DLD-1
[32] = system: NCI-H226
[33] = system: HCC 2998
[34] = system: SF-295
[35] = system: M19-MEL
[36] = system: MOLT-4
[37] = system: SF-539
[38] = system: OVCAR-3
[39] = system: IGROV-1
[40] = system: HOP-18
[41] = system: NCI-H522
[42] = system: LXFL 529
[43] = system: U-251
[44] = system: UACC-257
[45] = system: HOP-92
[46] = system: UACC-62
[47] = system: KM-20L2
[48] = system: NCI-H23
[49] = system: SK-MEL-28
[50] = system: EKVX
[51] = system: TK-10
[52] = system: CAKI-1
[53] = system: SNB-19
[54] = system: DU-145
[55] = system: NCI/ADR-RES
[56] = system: RPMI-8226
[57] = system: Hs-578T
[58] = system: PC-3
[59] = system: MDA-MB-435
[60] = system: MDA-N
[61] = system: K562
[62] = system: MDA-MB-231
[63] = system: MCF7
[64] = system: BT-549
[65] = system: HL-60
[66] = system: T47D
[67] = system: CCRF-CEM
[68] = system: SK-OV-3

O=C1/C(=C/c2ccc3c(c2)OCO3)SC2C=Nc3ccccc3N12 (centres undefined)
GI50 [1]: > 100 µM (inactive)
GI50 [2]: > 100 µM (inactive)
GI50 [3]: > 100 µM (inactive)
GI50 [4]: > 100 µM (inactive)
GI50 [5]: 93.5 µM (inactive)
GI50 [6]: > 10 µM (inactive)
GI50 [7]: > 100 µM (inactive)
GI50 [8]: > 100 µM (inactive)
GI50 [9]: 92.9 µM (inactive)
GI50 [10]: > 100 µM (inactive)
GI50 [11]: > 100 µM (inactive)
GI50 [12]: > 100 µM (inactive)
GI50 [13]: > 100 µM (inactive)
GI50 [14]: > 100 µM (inactive)
GI50 [15]: > 100 µM (inactive)
GI50 [16]: 28.9 µM (inactive)
GI50 [17]: > 100 µM (inactive)
GI50 [18]: > 100 µM (inactive)
GI50 [19]: > 100 µM (inactive)
GI50 [20]: > 100 µM (inactive)
GI50 [21]: > 100 µM (inactive)
GI50 [22]: > 100 µM (inactive)
GI50 [23]: > 100 µM (inactive)
GI50 [24]: > 100 µM (inactive)
GI50 [25]: > 100 µM (inactive)
GI50 [26]: 63.4 µM (inactive)
GI50 [27]: > 100 µM (inactive)
GI50 [28]: > 100 µM (inactive)
GI50 [29]: > 100 µM (inactive)
GI50 [30]: > 100 µM
GI50 [31]: > 100 µM (inactive)
GI50 [32]: > 100 µM (inactive)
GI50 [33]: > 100 µM (inactive)
GI50 [34]: > 100 µM (inactive)
GI50 [35]: > 100 µM (inactive)
GI50 [36]: > 100 µM (inactive)
GI50 [37]: 86.1 µM (inactive)
GI50 [38]: > 100 µM (inactive)
GI50 [39]: > 100 µM (inactive)
GI50 [40]: > 100 µM (inactive)
GI50 [41]: > 100 µM (inactive)
GI50 [42]: > 100 µM (inactive)
GI50 [43]: > 100 µM (inactive)
GI50 [44]: > 100 µM (inactive)
GI50 [45]: > 100 µM (inactive)
GI50 [46]: 54.8 µM (inactive)
GI50 [47]: > 100 µM (inactive)
GI50 [48]: > 100 µM (inactive)
GI50 [49]: > 100 µM (inactive)
GI50 [50]: > 100 µM (inactive)
GI50 [51]: > 100 µM (inactive)
GI50 [52]: > 100 µM (inactive)
GI50 [53]: > 100 µM (inactive)

O=NN(CCCl)C(=O)NC1CCCCC1 [LOMUSTINE]
GI50 [1]: 69.3 µM (inactive)
GI50 [2]: 74.3 µM (inactive)
GI50 [3]: 48.1 µM (inactive)
GI50 [4]: 54.7 µM (inactive)
GI50 [54]: 42.1 µM (inactive)
GI50 [5]: 45.8 µM (inactive)
GI50 [6]: 9.91 µM (inactive)
GI50 [55]: 51.3 µM (inactive)
GI50 [7]: 84.1 µM (inactive)
GI50 [56]: 16.9 µM (inactive)
GI50 [57]: 37.9 µM (inactive)
GI50 [8]: 41.2 µM (inactive)
GI50 [58]: 32.4 µM (inactive)
GI50 [10]: 51.6 µM (inactive)
GI50 [11]: 81.1 µM (inactive)
GI50 [12]: 16.4 µM (inactive)
GI50 [13]: 53.8 µM (inactive)
GI50 [59]: 3.36 µM (inactive)
GI50 [14]: 61.7 µM (inactive)
GI50 [15]: 36.1 µM (inactive)
GI50 [16]: 37.2 µM (inactive)
GI50 [60]: 18.7 µM (inactive)
GI50 [17]: 38.8 µM (inactive)
GI50 [18]: 24.5 µM (inactive)
GI50 [19]: 35.3 µM (inactive)
GI50 [20]: 27.7 µM (inactive)
GI50 [61]: 22 µM (inactive)
GI50 [21]: 46.6 µM (inactive)
GI50 [22]: 71.4 µM (inactive)
GI50 [23]: 52.2 µM (inactive)
GI50 [24]: 47.8 µM (inactive)
GI50 [62]: 21.6 µM (inactive)
GI50 [25]: 64.9 µM (inactive)
GI50 [26]: 61.4 µM (inactive)
GI50 [27]: 74.3 µM (inactive)
GI50 [28]: 41 µM (inactive)
GI50 [29]: 57.8 µM (inactive)
GI50 [63]: 35.5 µM (inactive)
GI50 [30]: 29.9 µM
GI50 [31]: 30.2 µM (inactive)
GI50 [32]: 64.4 µM (inactive)
GI50 [33]: 56 µM (inactive)
GI50 [34]: 32 µM (inactive)
GI50 [35]: 53 µM (inactive)
GI50 [36]: 18.4 µM (inactive)
GI50 [64]: 8.24 µM (inactive)
GI50 [37]: 24 µM (inactive)
GI50 [65]: 17.3 µM (inactive)
GI50 [38]: 66.2 µM (inactive)
GI50 [66]: 31.6 µM (inactive)
GI50 [39]: 47 µM (inactive)
GI50 [40]: 31.6 µM (inactive)
GI50 [41]: 24.4 µM (inactive)
GI50 [42]: 47.4 µM (inactive)
GI50 [43]: 31.6 µM (inactive)
GI50 [67]: 13 µM (inactive)
GI50 [44]: 54.2 µM (inactive)
GI50 [45]: 31.3 µM (inactive)
GI50 [46]: 12.7 µM (inactive)
GI50 [47]: 60.3 µM (inactive)
GI50 [48]: 68.5 µM (inactive)
GI50 [49]: 58.7 µM (inactive)
GI50 [50]: 72.8 µM (inactive)
GI50 [51]: 73.1 µM (inactive)
GI50 [68]: 71.8 µM (inactive)
GI50 [53]: 52.5 µM (inactive)
